The source of these data is patent US4192888A, “Pharmaceutical compositions and method of inhibiting phenylethanolamine N-methyltransferase” (SmithKline Corporation, priority 1978, dated 1980).

One assay deals with PNMT. Nature of the assay: In vivo conversion of 3H-norepinephrine into 3H-epinephrine in rat adrenals after oral dosing (PNMT inhibition). To be noted: rats, 50 mg./kg. three times over 24 hours, tracer 3H-norepinephrine i.v. (tail vein) one hour after last dose, adrenals assayed 45 min later, active if p<0.05. An excerpt: One hour after the last dose the rats are given a tracer dose of ^3 H-norepinephrine into a tail vein. Forty-five minutes later they are sacrificed by decapitation and the adrenals assayed for ^3 H-epinephrine and ^3 H-norepinephrine.

Assay [1] has as its target T1, phenylethanolamine N-methyltransferase (Oryctolagus cuniculus, UniProt G1TT82).
T1 construct: from tissue
T1 sequence (G1TT82 1-286): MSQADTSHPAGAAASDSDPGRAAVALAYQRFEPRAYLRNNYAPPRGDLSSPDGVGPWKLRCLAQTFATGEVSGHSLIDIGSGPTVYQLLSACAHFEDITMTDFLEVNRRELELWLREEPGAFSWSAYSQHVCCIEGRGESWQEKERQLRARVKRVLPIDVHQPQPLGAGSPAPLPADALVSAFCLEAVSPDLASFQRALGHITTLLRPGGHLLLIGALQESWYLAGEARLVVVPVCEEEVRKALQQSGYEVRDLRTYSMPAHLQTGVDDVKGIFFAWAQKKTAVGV
Nature of the assay: In vitro inhibition of phenylethanolamine N-methyltransferase (Pendleton and Snow procedure). It counts as biochemical. To be noted: for In Vitro Inhibition % at 10^-4: compound concentration 10^-4; for inhibition at 1 µM: compound concentration 10^-6M. From the text:
For example, following are in vitro results obtained from testing several compounds present in the pharmaceutical compositions and methods of this invention.

As to `NC1Cc2ccc(S(N)(=O)=O)cc2C1` (stereo not shown) [5-sulfamoyl-2-aminoindane, 5-sulfamyl-2-indanamine], the “inhibition of the conversion of radioactive norepinephrine into epinephrine” value in the assay with PNMT is “significantly inhibited this conversion (p<0.01)”.

For the compound `NC1Cc2ccc(Br)cc2C1` (stereo not shown) [compound 85347], in assay [1], the “In Vitro Inhibition % at 10^-4” value is listed as 96% and the inhibition (commonly the relative decrease from the control value, in per cent) at 1 µM amounted to 33%.

Take `NC1Cc2ccc([N+](=O)[O-])cc2C1` (stereo not shown) [compound 85391]: in assay [1], the “In Vitro Inhibition % at 10^-4” value amounted to 96% and testing at 1 µM gave an inhibition of 23%.

As for `NC1Cc2ccc(Cl)cc2C1` (stereo not shown) [compound 85506], in assay [1], the “In Vitro Inhibition % at 10^-4” value came out at 96% and at 1 µM the inhibition was 37%.
